Data from patent publication US4499107A, “Method for treating infected renal calculosis” (Dr. L^o. Zambeletti, S.p.A., priority 1981, dated 1985).
Read-outs that look alike come from different tables or passages of the source.

How the values were obtained:
[1] = Teratogenesis in pregnant female rats
[2] = tested on: chinese hamster embryonal cell cultures; settings: 1,1.10^-4 M; cited from earlier work
[3] = tested on: mouse embryonal cell cultures; settings: 1,1.10^-4 M; cited from earlier work
[4] = rabbit, in vivo; for duration of the reduction of the arterial pressure: po, 100 mg/kg
[5] = tested on: Salmonella typhimurium (TA 100 and TA 98); settings: strains TA 100 and TA 98, 40,000 μg/plate; cited from earlier work
[6] = design: species or system "Wistar" rats; settings: rat, in vivo, po, 200 mg/kg
Protocol: Subacute toxicity. A test lasting 4 weeks has been carried out on the two compounds administered at the dose of 200 mg/kg by oral route to groups of "Wistar" rats, 8 males and 8 females, with daily observation of the behavior, of health status, of feed and water consumption and, twice a week, of the body weight of animals. At the end of 4 weeks the animals have been sacrificed and autopsy and haematological and haematochemical examinations have been performed on them. For all the duration of the test, no anomaly has been noticed in the behavior of both AHA-treated and PHA-treated animals.

[7] = Acute toxicity; settings: mouse, in vivo
[8] = pregnant female rats, 12th day of pregnancy, cited from earlier work
[9] = tested on: urease-producing bacteria; settings: renal lithiasis sustained by urease-producing bacteria; cited from earlier work
[10] = tested on: mouse embryonal cell cultures; assay: Mutagenesis: morphological changes of the chromosomes in embryonal cell cultures; assay type: cell-based; settings: 1.1 10^-4 M, 24-72 hours of incubation
Description: (§1) Mutagenesis. As far as AHA is concerned, it has been previously reported. […] The propionhydroxamic acid is non mutagenic also in the Ames test.

[11] = tested on: chinese hamster embryonal cell cultures; assay: as above; assay type: cell-based; settings: 1.1 10^-4 M, 24-72 hours of incubation
Description: as §1

[12] = rat, in vivo, ip, 300 mg/kg
[13] = tested on: Salmonella typhimurium (TA 100 and TA 98); assay: Ames test; assay type: cell-based
Protocol: In the Belgian Pat. No. 878,836, Jan. 16, 1980, it is moreover reported that AHA is mutagenic according to the Ames test on two strains of Salmonella typhimurium (TA 100 and TA 98), at the dose of 40,000 μg/plate.
as §1

[14] = tested on: urinary infection caused by urease-producing bacteria; assay type: in vivo, patient
Description: The results shown above, pointing out a globally superimposable behavior of AHA and PHA, with the exclusion of the fundamental aspects of the mutagenesis and of the theratogenesis, which are absent in propionhydroxamic acid, prompted to test this latter compound on some clinical cases, hereunder reported. (1) Urinary infection caused by urease-producing bacteria; (2) relapsing renal calculosis.

[15] = Case 1, 500 mg/die combined with antibiotic therapy
[16] = Case 2, 375 mg/die combined with antibiotic therapy
[17] = Case 4, 500 mg/die with antibiotic therapy, after 3 months
[18] = Case 5, 500 mg/die with antibiotic therapy

## CC(=O)NO [AHA, acetohydroxamic acid, reference compound]
[1]; dose for AHA not stated at this place
  dead fetuses (comparison value): 50%
[2]
  morphological changes of the chromosomes provoked by damages at DNA: causes morphological changes of the chromosomes
[3]
  morphological changes of the chromosomes provoked by damages at DNA: causes morphological changes of the chromosomes
[4]; 50 mg/kg
  reduction of the mean arterial pressure: 15%
  time after administration at which the reduction of mean arterial pressure is still present: ≥ 120 min
[4]
  duration of the reduction of the arterial pressure: > 120 min
[5]
  mutagenicity in the Ames test: mutagenic
[6]
  autoptical examination of the main organs (thymus, testes, heart, liver): hypotrophy of the main organs
  behavior of animals: no anomaly
  feed consumption: decrease
  haematochemical parameters, AHA versus PHA: No remarkable differences
  macroscopic lesion of the main organs: no macroscopic lesion
[7]; po
  LD50: 2740 mg/kg
[8]; i.p. 750 mg/kg una tantum
  fetuses with deformations: 50%
[8]; i.p. 1000 mg/kg una tantum
  deaths of fetuses: 55%
  deformations in the survived fetuses: 100%
[8]; i.p. 1500 mg/kg una tantum
  reabsorption of fetuses: 100%
[9]
  drug's action on urinary ammonium and urinary pH: decrease of urinary ammonium and urinary pH

## CCC(=O)NO [PHA, propionhydroxamic acid]
[1]; intraperitoneal, once on the 13th day of pregnancy, 300 mg/kg
  dead fetuses: 55%
[10]
  morphologic change of the chromosomes provoked by damages at DNA: did not induce
[11]
  morphologic change of the chromosomes provoked by damages at DNA: did not induce
[4]; 50 mg/kg
  blood pressure: does not change
  heart rate: does not change
[4]
  duration of the reduction of the arterial pressure: 10 to 30 min
[12]
  morphological development of the survived fetuses: perfectly normal development
[6]
  autoptical examination of the main organs (thymus, testes, heart, liver): hypotrophy of the main organs
  behavior of animals: no anomaly
  feed consumption: decrease
  haematochemical parameters, AHA versus PHA: No remarkable differences
  macroscopic lesion of the main organs: no macroscopic lesion
[7]; oral route, confidence limits in brackets
  LD50: 2370 mg/kg
[13]
  mutagenicity in the Ames test: non mutagenic
[14]; [15]
  urinary ammonium values: normalization
  urinary pH: normalization
[14]; Case 1, 500 mg/die combined with antibiotic therapy, Proteus mirabilis
  urinary cultures: sterilization of urinary cultures
[14]; Case 2, 375 mg/die
  effect of temporary interruption of the drug: reapparence of urease producing bacteria (Klebsiella)
[14]; [16]
  urinary ammonium values: decrease of urinary ammonium values
  urinary infection: resolution of urinary infection
[14]; Case 2, 375 mg/die combined with antibiotic therapy, Proteus mirabilis and Klebsiella
  urinary acidification: sufficient urinary acidification
[14]; Case 2, 375 mg/die, during 5 months' therapy
  volumetric increase of the lithiasic relapse: not observed
[14]; Case 3
  lithiasic relapse at the left kidney: Absence of lithiasic relapse
[14]; Case 3, combination
  crystalluria: non pathologic crystalluria
[14]; Case 3, combination, Proteus mirabilis
  urinary ammonium: normalization
[14]; Case 4, 500 mg/die
  lithiasic relapse at the left kidney: no lithiasic relapse
[14]; [17]
  crystalluria: normalization
  urinary pH: normalization
[14]; Case 4, 500 mg/die with antibiotic therapy, after 3 months, Proteus mirabilis and Klebsiella
  ammonium values: normalization
[14]; [18]
  growth of the already present lithiasic formation: stopping of the growth
  onset of further relapses: lacking onset of further relapses
  urinary infection: resolution of urinary infection
  urinary pH: normalization
[14]; Case 5, 500 mg/die with antibiotic therapy, Proteus mirabilis
  urinary ammonium: normalization
